Experimental data published in ChEMBL document CHEMBL1157035, “Synthesis and biological evaluation of water-soluble organogermanium” (Eur J Med Chem, 2010).
Active and inactive are the calls of the source. No cut-off for these calls is given here.

What was measured:
Assay type in all cases: functional, organism-based
Mus musculus [1] = experiment: Immunoregulatory activity in ICR mouse assessed as increase in serum IFN-gamma level at 100 mg/kg, po after 12 to 24 hrs by ELISA; design: dose 100 mg/kg
Mus musculus [2] = experiment: Immunoregulatory activity in po dosed ICR mouse assessed as increase in serum IFN-gamma level after 24 hrs by ELISA
Mus musculus [3] = experiment: Immunoregulatory activity in ICR mouse assessed as increase in serum IFN-gamma level at 300 mg/kg, po after 24 hrs by ELISA; design: dose 300 mg/kg
Mus musculus [4] = experiment: Immunoregulatory activity in ICR mouse assessed as increase in serum IFN-gamma level at 100 mg/kg, po after 12 hrs by ELISA; design: dose 100 mg/kg
Mus musculus [5] = experiment: Immunoregulatory activity in ICR mouse assessed as increase in serum IFN-gamma level at 100 mg/kg, po after 24 hrs by ELISA; design: dose 100 mg/kg

Substance | Activity (Mus musculus [1]) | Activity (Mus musculus [2]) | Activity (Mus musculus [3]) [pg/mL] | Activity (Mus musculus [4]) | Activity (Mus musculus [5]) [pg/mL]
6-O-[3-(trimethylgermyI)propyl]-beta-D-glucopyranoside | Active | Dose-dependent effect | 600 | inactive | –
GERMANIUM SESQUIOXIDE | Active | – | – | inactive | 320
